# Assay results reported in ChEMBL document CHEMBL1154512, “PA-824 kills nonreplicating Mycobacterium tuberculosis by intracellular NO release” (2008).
# Activity calls are given as the source filed them. No cut-off for these calls is given here.
# System: Mycobacterium tuberculosis
# Assay: Bactericidal activity against Mycobacterium tuberculosis prcAB/tetR mutant after 3 days under anaerobic condition by serial dilution method
# Format: functional, organism-based
smiles,measurement,value
O=[N+]([O-])c1cn2c(n1)OC[C@@H](OCc1ccc(OC(F)(F)F)cc1)C2 [PRETOMANID],Activity,Active
